Patent publication US12281335B2, “Methods and compositions for delivery of viral vectors across the blood-brain barrier” (priority 2017, dated 2025)
Entries after “also recorded” stand apart in the source; their conditions may differ. Ends that are not written are not given here.

How the values were obtained:
C57BL/6 mice [1] = assay: In vivo luciferase imaging after retro-orbital injection of AAV8/luc with peptides; parameters: species or system mouse; conditions: 0.1 mM peptides + 5E+10 vg AAV8/luc, retro-orbital vein, 7th day
Method: Animal study. […] Mice were administered with AAV8/Luc incubated with peptides via retro-orbital injection. Luciferase expression was imaged at the indicated time points using a Xenogen IVIS Lumina (Caliper Lifesciences, Waltham, MA) following intraperitoneal injection of D-luciferin substrate (Nanolight Pinetop, AZ). Bioluminescent images were analyzed using Living Image (PerkinElmer, Waltham, MA). At various time points after injection, blood was collected from the retro-orbital plexus, and the viral titers were tested by qPCR.

C57BL/6 mice [2] = assay: Quantitation of luciferase expression in tissues; assay type: in vivo, mouse; conditions: 0.1 mM peptides + 5E+10 vg AAV8/luc
Method: Quantitation of luciferase expression in tissues. Animals utilized for imaging studies were sacrificed after one-week post imaging work, and the tissues of the heart, liver, spleen, skeletal muscle and brain were collected, and were minced and homogenized in passive lysis buffer. Then the lysates were centrifuged at 10,000 rpm for 5 minutes to remove cellular debris. Supernatant was transferred to 96-well plates for luciferase activity analysis as described above. Total protein concentration in tissue lysates was measured using the Bradford assay (Bio-Rad Laboratories, Philadelphia, PA).

C57BL/6 mice [3] = assay: Measurement of AAV genome copy number in tissue; assay type: in vivo, mouse; conditions: 0.1 mM peptides + 5E+10 vg AAV8/luc; vs AAV8 only
Method: Measurement of AAV genome copy number in tissue. Total gDNA from different minced tissues was isolated with the DNeasy blood & tissue kit (Qiagen, USA). Luciferase gene was measured by qPCR assay. Mouse-lamin gene served as an internal control.

AAV9 virions = assay: Phage binding to AAV-coated plate
Method: FIGS. 13A-13B show binding specificity of PB5-3 peptide to AAV9. After coating with 1×10^10 particles of AAV9, different phages at a dose of 1×10^11 were added to a 96 well plate and incubated. After washing, the number of bound phages was detected (FIG. 13A). A 96 well-plate was coated with 1×10^10 particles of AAV vectors/well from serotypes 6, 8 and 9 overnight. After washing, 1×10^11 of PB5-3 phages were added and incubated at room temperature for 2 hrs. After washing, the phage particles were detected (FIG. 13B).
To study the AAV9 virion binding affinity of the peptides isolated from phage, first we compared the affinity of the different peptides to AAV9 virions. After incubation of an AAV9-coated plate with different phages and several washings, much more PB5-3 phages were detected to bind to AAV9 than PB5-5 and PB5-14 phages (FIG. 13A). […] We coated the plate with AAV virions from different serotypes. After incubation with PB5-3 phages, the number of phages on the AAV9-coated plate was much higher than that with AAV6 and AAV8 (FIG. 13B).

different cell types = conditions: different concentrations, 48 hrs
Method: 1×10^4 cells were incubated with PB5-3 peptide at different concentrations for 48 hrs. Cell proliferation was analyzed with MTT assay (FIG. 14A). AAV9/luc vectors at a dose of 1×10^9 particles were incubated with PB5-3 peptide for 2 hrs at 4° C., then the mixture was applied to different cells and incubated for 2 days. Luciferase expression from cell lysate was detected (FIG. 14B). For comparison, PB5-3 was added to cells just before infection of AAV9 (FIG. 14C).

[4] = tested on: Huh7, Hela, C2C12 and hCMEC/D3; assay: AAV9/luc transduction in cell lines with PB5-3; assay type: cell-based
Method: Cell proliferation was analyzed with MTT assay (FIG. 14A). […] Luciferase expression from cell lysate was detected (FIG. 14B).
PB5-3 peptide specifically enhances AAV9 transduction in cell lines. Next, we examined the effect of PB5-3 on AAV9 transduction in vitro. […] Consistent with previous studies, the direct interaction of peptide and AAV virions is required to enhance AAV9 transduction.

Huh7 or hCMEC/D3 cells = assay: Transduction of AAV serotypes 2, 6 and 8 with PB5-3 in vitro; assay type: cell-based; conditions: incubated with PB5-3; either cell line
Method: 1×10^9 particles of AAV/luc vectors from serotype 2 (FIG. 15A), 6 (FIG. 15B), and 8 (FIG. 15C) were incubated with PB5-3 peptide for 2 hr at 4° C. The complex of AAV vector and peptide was applied to Huh7 or hCMEC/D3 cells. Two days later, the lysate from these cells was harvested for luciferase analysis.
Analysis of enhancement of AAV transduction from other serotypes with PB5-3 peptide in vitro. To further investigate the specific effect of PB5-3 on AAV9, we tested the effect of PB5-3 on AAV transduction from other serotypes. AAV vectors from serotypes 2, 6, and 8 were incubated with PB5-3 and then the mixture was applied to Huh7 or hCMEC/D3 cells. The transduction was detected two days later after AAV infection.

C57BL mice [5] = assay: Systemic administration of AAV9/PB5-3 complex, imaging and genome copy number; assay type: in vivo, mouse
Method: 1×10^10 particles of AAV9/luc vectors were incubated with PB5-3 for 2 hr at 4° C. The complex was injected into C57BL mice via the retro-orbital vein. At indicated time points, mouse imaging was performed. (FIG. 16A) representative imaging. (FIG. 16B) luciferase expression. (FIG. 16C) AAV genome copy number. The results represented the average and standard derivation from five mice.
PB5-3 peptide enhances AAV9 transduction in the brain after systemic administration. To study the effect of PB5-3 peptide on AAV9 transduction in mice, we injected AAV9 vectors pre-incubated with PB5-3 peptide into C57BL mice via the retro-orbital vein. At days 1, 3, 7, and 14 post AAV administration, mouse imaging was taken. […] Transduction in the liver was similar regardless of AAV9 pre-incubation with PB5-3 peptide (FIG. 16B). Consistent to tissue transgene expression, AAV genome copy number in the brain but not in other tissues was higher in mice receiving the complex of AAV9 and PB5-3 (FIG. 16C).

C57BL mice [6] = assay: Systemic administration of AAV6 and AAV8 pre-incubated with PB5-3, imaging; assay type: in vivo, mouse; conditions: pre-incubated with PB5-3, days 5 and 10
Method: AAV/luc vectors from serotypes 6 or 8 at a dose of 5×10^10 or 1×10^10 particles, respectively, were incubated with PB5-3 for 2 hrs at 4° C. The complex was injected into C57BL mice via retro-orbital vein. At day 5 and 10 post AAV injection, mouse imaging was carried out. Representative imaging is shown from five mice.
No effect of PB5-3 peptide on AAV brain transduction from other serotypes after systemic administration. To confirm the result in vitro that PB5-3 peptide could not efficiently bind to other AAV serotypes except for AAV9, we administered AAV6 and AAV8 vectors pre-incubated with PB5-3 in C57BL mice via retro-orbital injection. At days 5 and 10 post AAV application, mouse imaging was carried out.

[7] = tested on: BBB hCMEC/D3 endothelial cells; assay: In vitro endothelial cell permeability analysis of AAV9; assay type: cell-based, human; conditions: AAV9 pre-incubated with PB5-3 vs AAV9 with DPBS
Method: Media in the basal chamber was collected at indicated time points and viral genome copy number was analyzed by qPCR. All treatments were performed in triplicate. *p<0.05 when compared to cells with the AAV9 only.
PB5-3 peptide enhances AAV9 permeability in vitro. To study whether PB5-3 affects the ability of AAV9 to cross the endothelial cell layer, we performed an in vitro endothelial cell permeability analysis in a well-defined system using BBB hCMEC/D3 endothelial cells. Two groups were designed: an AAV9 vector incubated with DPBS (AAV9 cohort); and an AAV9 vector incubated with PB5-3 (AAV9-PB5-3 cohort). […] These observations indicate that the interaction of AAV9 with the PB5-3 peptide increased the ability of AAV9 to cross the BBB.

[8] = tested on: HEK293 cells or Huh7 cells; assay: In vitro transduction assay, AAV8/luc with peptides; assay type: cell-based, human; conditions: 10000 vg AAV8/luc incubated with peptides 2 h at 4° C.; both cell lines; 48 h; vs AAV8 only
Method: In vitro transduction assay. At least 4-5 h prior to AAV transduction, cells were seeded in 48-well plates with a density of 1E+05 cells each well. Cells were infected with 1E+04 vector genomes (vg) of AAV8/luc virus per cell and harvested after 48 h. Luciferase activity was measured following manufacturer's instruction (Promega, Madison, WI).
The complex of AAV8 and peptides influences AAV8 transduction in vitro and in vivo. To identify the potential and functional peptides that enhanced AAV8 transduction, we screened several reported peptides as shown in Table 5 and Table 6. First, we tested the cytotoxicity of peptides at different concentrations on cells. […] After that, we performed the transduction assay in vitro. We incubated the 10000 vg AAV8/luc and peptides for 2 h at 4° C., and then applied the mixture to HEK293 cells or Huh7 cells. After 48 h, the cell lysate was collected for luciferase analysis.

[9] = tested on: human transferrin binding to AAV8 virions; assay: AAV8 competitive binding assay; conditions: pre-incubation with AAV8, then human transferrin; pull down with transferrin antibody, qPCR
Method: AAV8 competitive binding assay. For THR competitive binding analysis, 10 ul of Protein G resin (Thermo, USA) per system was incubated with 1 ug of human transferrin antibody or goat IgG antibody control at 4° C. overnight. […] After that, the mixture was added to the complex of protein G resin and transferrin antibody and incubated at 4° C. overnight. Finally, the complex was stringently washed three times with cold DPBS. DNA from the complex was extracted and applied for qPCR to determine AAV genome copy number per cell using luc specific primers.
To investigate whether THR also binds to the same location of AAV8 virions as human serum proteins, we performed a competitive assay. […] The transferrin antibody was used to pull down transferrin bound AAV8 virions and AAV8 gene copy number was measured by qPCR.

Row | Substance | transgene expression in the liver (imaging) (C57BL/6 mice [1]) | AAV8 brain transduction (luc expression and genome number) (C57BL/6 mice [2]) | AAV genome copy number in the brain (C57BL/6 mice [3]) | AAV8 transduction (luciferase) [8] | other results
1 | (LRKLRKRLL)2 (LRKLRKRLLLRKLRKRLL) [ApoE (159-167)2] | higher | increased AAV8 transduction in the brain | much higher |  | 
2 | QFAALPVRAHYG-NH2 [PB5-3] |  |  |  |  | number of phages on AAV9-coated plate vs other serotypes (AAV9 virions; vs AAV6 and AAV8 coated plates): much higher; phages bound to AAV9-coated plate (AAV9 virions; vs PB5-5 and PB5-14 phages): much more; toxicity (MTT assay) (different cell types): no toxicities; AAV9 transduction, PB5-3 incubated with AAV9 virions ([4]; 2 hrs at 4° C. pre-incubation, Huh7, Hela, C2C12 and hCMEC/D3): enhanced transduction; also recorded: specifically enhances AAV9 transduction in vitro; AAV9 transduction, PB5-3 without incubation ([4]; PB5-3 added to cells just before infection of AAV9): failed to increase AAV9 transduction; transduction of AAV2, 6 or 8 (Huh7 or hCMEC/D3 cells): No enhanced transduction; also recorded: no enhancement; AAV9 transduction in brain (imaging) (C57BL mice [5]; 1×10^10 particles AAV9/luc pre-incubated with PB5-3, retro-orbital vein): specifically enhanced AAV9 ability to cross the BBB and increase brain transduction; also recorded: high transduction in brain tissues; AAV genome copy number in the brain (C57BL mice [5]; complex of AAV9 and PB5-3, not in other tissues): higher; AAV9 transduction in the liver (C57BL mice [5]; with vs without PB5-3 pre-incubation): similar; brain transduction from AAV6 and AAV8 (C57BL mice [6]): No brain transduction enhancement; also recorded: no effect; endothelial cell permeability of AAV9 [7]: significant increase in the endothelial cell permeability; also recorded: increases AAV9 permeability
3 | KKALLALALHHLAHLALALKKAC [LAH4] | higher | no effect on brain transduction |  | significantly enhanced AAV8 transduction | AAV8 liver transduction (C57BL/6 mice [2]): increased AAV8 liver transduction
4 | TFFYGGSRGKRNNFKTEEY-OH [Angiopep-2] | higher | increased AAV8 transduction in the brain | much higher |  | 
5 | YQQILTSMPSRNVIQISNDLENLRDLLHVL [Leptin 30 (61-90)] | higher | increased AAV8 transduction in the brain | much higher | significantly enhanced AAV8 transduction | 
6 | FILMVWAPFI [PEPXT-1, control peptide, neutral polarity] |  |  |  |  | inhibition of transferrin binding to AAV8 [9]: no effect
7 | GRKKRRQRRRPPQ [HIV-1 TAT (48-60)] | higher | no effect on brain transduction |  | significantly enhanced AAV8 transduction | AAV8 liver transduction (C57BL/6 mice [2]): increased AAV8 liver transduction
